Reference: patent US10975077B2 (Novira Therapeutics, Inc., priority 2016, dated 2021)

System: HBV (encapsidated HBV DNA, HepG2.2.15 cells)
Test: HBV replication inhibition assay, BDNA assay in HepG2.2.15 cells
Format: cell-based
Conditions: Activity in BDNA-assay
Procedure: HBV replication inhibition by the disclosed compounds were determined in cells infected or transfected with HBV, or cells with stably integrated HBV, such as HepG2.2.15 cells (Sells et al. 1987). In this example, HepG2.2.15 cells were maintained in cell culture medium containing 10% fetal bovine serum (FBS), Geneticin, L-glutamine, penicillin and streptomycin. HepG2.2.15 cells were seeded in 96-well plates at a density of 40,000 cells/well and were treated with serially diluted compounds at a final DMSO concentration of 0.5% either alone or in combination by adding drugs in a checker box format. Cells were incubated with compounds for three days, after which medium was removed and fresh medium containing compounds was added to cells and incubated for another three days. At day 6, supernatant was removed and treated with DNase at 37° C. for 60 minutes, followed by enzyme inactivation at 75° C. for 15 minutes. Encapsidated HBV DNA was released from the virions and covalently linked HBV polymerase by incubating in lysis buffer (Affymetrix QS0010) containing 2.5 μg proteinase K at 50° C. for 40 minutes. HBV DNA was denatured by addition of 0.2 M NaOH and detected using a branched DNA (BDNA) QuantiGene assay kit according to manufacturer recommendation (Affymetrix). HBV DNA levels were also quantified using qPCR, based on amplification of encapsidated HBV DNA extraction with QuickExtraction Solution (Epicentre Biotechnologies) and amplification of HBV DNA using HBV specific PCR probes that can hybridize to HBV DNA and a fluorescently labeled probe for quantitation. In addition, cell viability of HepG2.2.15 cells incubated with test compounds alone or in combination was determined by using CellTitre-Glo reagent according to the manufacturer protocol (Promega). The mean background signal from wells containing only culture medium was subtracted from all other samples, and percent inhibition at each compound concentration was calculated by normalizing to signals from HepG2.2.15 cells treated with 0.5% DMSO using equation E1. % inhibition=(DMSOave−Xi)/DMSOave×100% E1: where DMSOave is the mean signal calculated from the wells that were treated with DMSO control (0% inhibition control) and Xi is the signal measured from the individual wells. EC50 values, effective concentrations that achieved 50% inhibitory effect, were determined by non-linear fitting using Graphpad Prism software (San Diego, Calif.) and equation E2: Y=Y min+(Y max −Y min)/(1+10(Log EC50−X)×HillSlope) E2: […]
where Y represents percent inhibition values and X represents the logarithm of compound concentrations.
Selected disclosed compounds were assayed in the HBV replication assay (BDNA assay), as described above and a representative group of these active compounds is shown in Table 6.

Question: How did the EC50 turn out when C[C@@H]1Cc2nn3c(c2CN1C(=O)Nc1ccc(F)c(C#N)c1)C(=O)N(C)CC(CO)C3 (single isomer, unassigned) [Compound 087_D2, (3R,8R*)—N-(3-cyano-4-fluorophenyl)-8-(hydroxymethyl)-3,10-dimethyl-11-oxo-1,3,4,7,8,9,10,11-octahydro-2H-pyrido[4′,3′:3,4]pyrazolo[1,5-a][1,4]diazepine-2-carboxamide] was run?
Answer: 1 to 100 nM

Question: Which EC50 does the source give for C[C@@H]1Cc2nn3c(c2CN1C(=O)Nc1ccc(F)c(C#N)c1F)C(=O)N(C)CC(CO)C3 (single isomer, unassigned) [Compound 088_D2, (3R,8R*)—N-(3-cyano-2,4-difluorophenyl)-8-(hydroxymethyl)-3,10-dimethyl-11-oxo-1,3,4,7,8,9,10,11-octahydro-2H-pyrido[4′,3′:3,4]pyrazolo[1,5-a][1,4]diazepine-2-carboxamide] here?
Answer: 1 to 100 nM

Question: For C[C@@H]1Cc2nn3c(c2CN1C(=O)Nc1ccc(F)c(Cl)c1F)C(=O)N(C)CC(CO)C3 (single isomer, unassigned) [Compound 089_D2, (3R,8R*)—N-(3-chloro-2,4-difluorophenyl)-8-(hydroxymethyl)-3,10-dimethyl-11-oxo-1,3,4,7,8,9,10,11-octahydro-2H-pyrido[4′,3′:3,4]pyrazolo[1,5-a][1,4]diazepine-2-carboxamide], which EC50 is on record?
Answer: 1 to 100 nM

Question: How did the EC50 turn out when C[C@@H]1Cc2nn3c(c2CN1C(=O)Nc1cc(Cl)c(F)cc1F)C(=O)N(C)CC(CO)C3 (single isomer, unassigned) [Compound 090_D2, (3R,8R*)—N-(5-chloro-2,4-difluorophenyl)-8-(hydroxymethyl)-3,10-dimethyl-11-oxo-1,3,4,7,8,9,10,11-octahydro-2H-pyrido[4′,3′:3,4]pyrazolo[1,5-a][1,4]diazepine-2-carboxamide] was run?
Answer: 1 to 100 nM

Question: Which EC50 does the source give for C[C@@H]1Cc2nn3c(c2CN1C(=O)Nc1ccc(F)c(Cl)c1)C(=O)N(CC(F)F)CC(CO)C3 (single isomer, unassigned) [Compound 092_D2, (3R,8 S*)—N-(3-chloro-4-fluorophenyl)-10-(2,2-difluoroethyl)-8-(hydroxymethyl)-3-methyl-11-oxo-1,3,4,7,8,9,10,11-octahydro-2H-pyrido[4′,3′:3,4]pyrazolo[1,5-a][1,4]diazepine-2-carboxamide] here?
Answer: 1 to 100 nM

Question: CCC(O)C1CN(C)C(=O)c2c3c(nn2C1)CCN(C(=O)Nc1cc(Cl)c(F)cc1F)C3 (single isomer, unassigned) [Compound 096_E3, (S*)—N-(5-chloro-2,4-difluorophenyl)-8-((S*)-1-hydroxypropyl)-10-methyl-11-oxo-1,3,4,7,8,9,10,11-octahydro-2H-pyrido[4′,3′:3,4]pyrazolo[1,5-a][1,4]diazepine-2-carboxamide] was tested. Which EC50 did it give?
Answer: 100 to 500 nM

Question: How did the EC50 turn out when CCC(O)C1CN(C)C(=O)c2c3c(nn2C1)CCN(C(=O)Nc1ccc(F)c(C#N)c1)C3 (single isomer, unassigned) [Compound 097_E1, (R*)—N-(3-cyano-4-fluorophenyl)-8-((S*)-1-hydroxypropyl)-10-methyl-11-oxo-1,3,4,7,8,9,10,11-octahydro-2H-pyrido[4′,3′:3,4]pyrazolo[1,5-a][1,4]diazepine-2-carboxamide] was run?
Answer: 1 to 100 nM

Question: Which EC50 does the source give for CCC(O)C1CN(C)C(=O)c2c3c(nn2C1)CCN(C(=O)Nc1ccc(F)c(C#N)c1)C3 (single isomer, unassigned) [Compound 097_E2, (S*)—N-(3-cyano-4-fluorophenyl)-8-((R*)-1-hydroxypropyl)-10-methyl-11-oxo-1,3,4,7,8,9,10,11-octahydro-2H-pyrido[4′,3′: 3,4]pyrazolo[1,5-a][1,4]diazepine-2-carboxamide] here?
Answer: 100 to 500 nM

Question: CCC(O)C1CN(C)C(=O)c2c3c(nn2C1)CCN(C(=O)Nc1ccc(F)c(C#N)c1)C3 (single isomer, unassigned) [Compound 097_E3, (S*)—N-(3-cyano-4-fluorophenyl)-8-((S*)-1-hydroxypropyl)-10-methyl-11-oxo-1,3,4,7,8,9,10,11-octahydro-2H-pyrido[4′,3′: 3,4]pyrazolo[1,5-a][1,4]diazepine-2-carboxamide] was tested. Which EC50 did it give?
Answer: 100 to 500 nM

Question: Which EC50 does the source give for CCC(O)C1CN(C)C(=O)c2c3c(nn2C1)CCN(C(=O)Nc1ccc(F)c(C#N)c1)C3 (single isomer, unassigned) [Compound 097_E4, (R*)—N-(3-cyano-4-fluorophenyl)-8-((R*)-1-hydroxypropyl)-10-methyl-11-oxo-1,3,4,7,8,9,10,11-octahydro-2H-pyrido[4′,3′: 3,4]pyrazolo[1,5-a][1,4]diazepine-2-carboxamide] here?
Answer: 1 to 100 nM

Question: How did the EC50 turn out when CCC(O)C1CN(C)C(=O)c2c3c(nn2C1)CCN(C(=O)Nc1ccc(F)c(C#N)c1F)C3 (single isomer, unassigned) [Compound 098_E1, (R*)—N-(3-cyano-2,4-difluorophenyl)-8-((S*)-1-hydroxypropyl)-10-methyl-11-oxo-1,3,4,7,8,9,10,11-octahydro-2H-pyrido[4′,3′:3,4]pyrazolo[1,5-a][1,4]diazepine-2-carboxamide] was run?
Answer: 1 to 100 nM

Question: With CCC(O)C1CN(C)C(=O)c2c3c(nn2C1)CCN(C(=O)Nc1ccc(F)c(C#N)c1F)C3 (single isomer, unassigned) [Compound 098_E2, (S*)—N-(3-cyano-2,4-difluorophenyl)-8-((R*)-1-hydroxypropyl)-10-methyl-11-oxo-1,3,4,7,8,9,10,11-octahydro-2H-pyrido[4′,3′:3,4]pyrazolo[1,5-a][1,4]diazepine-2-carboxamide] as the compound, how does the EC50 read?
Answer: 500 to 1000 nM

Same assay, conditions: Hepatitis B virus, HepG2.2.15, Activity in BDNA-assay

Question: How did the EC50 turn out when C[C@@H]1Cc2nn3c(c2CN1C(=O)Nc1ccc(F)c(C#N)c1)C(=O)N(C)CC(CO)C3 (single isomer, unassigned) [Compound 087_D1, (3R,8S*)—N-(3-cyano-4-fluorophenyl)-8-(hydroxymethyl)-3,10-dimethyl-11-oxo-1,3,4,7,8,9,10,11-octahydro-2H-pyrido[4′,3′:3,4]pyrazolo[1,5-a][1,4]diazepine-2-carboxamide] was run?
Answer: 1 to 100 nM

Question: How did the EC50 turn out when C[C@@H]1Cc2nn3c(c2CN1C(=O)Nc1ccc(F)c(C#N)c1F)C(=O)N(C)CC(CO)C3 (single isomer, unassigned) [Compound 088_D1, (3R,8S*)—N-(3-cyano-2,4-difluorophenyl)-8-(hydroxymethyl)-3,10-dimethyl-11-oxo-1,3,4,7,8,9,10,11-octahydro-2H-pyrido[4′,3′:3,4]pyrazolo[1,5-a][1,4]diazepine-2-carboxamide] was run?
Answer: 1 to 100 nM

Question: With C[C@@H]1Cc2nn3c(c2CN1C(=O)Nc1ccc(F)c(Cl)c1F)C(=O)N(C)CC(CO)C3 (single isomer, unassigned) [Compound 089_D1, (3R,8S*)—N-(3-chloro-2,4-difluorophenyl)-8-(hydroxymethyl)-3,10-dimethyl-11-oxo-1,3,4,7,8,9,10,11-octahydro-2H-pyrido[4′,3′:3,4]pyrazolo[1,5-a][1,4]diazepine-2-carboxamide] as the compound, how does the EC50 read?
Answer: 1 to 100 nM

Question: For C[C@@H]1Cc2nn3c(c2CN1C(=O)Nc1cc(Cl)c(F)cc1F)C(=O)N(C)CC(CO)C3 (single isomer, unassigned) [Compound 090_D1, (3R,8S*)—N-(5-chloro-2,4-difluorophenyl)-8-(hydroxymethyl)-3,10-dimethyl-11-oxo-1,3,4,7,8,9,10,11-octahydro-2H-pyrido[4′,3′:3,4]pyrazolo[1,5-a][1,4]diazepine-2-carboxamide], which EC50 is on record?
Answer: 1 to 100 nM

Question: Which EC50 does the source give for C[C@@H]1Cc2nn3c(c2CN1C(=O)Nc1ccc(F)c(Cl)c1)C(=O)N(CC(F)F)CC(CO)C3 (single isomer, unassigned) [Compound 092_D1, (3R,8R*)—N-(3-chloro-4-fluorophenyl)-10-(2,2-difluoroethyl)-8-(hydroxymethyl)-3-methyl-11-oxo-1,3,4,7,8,9,10,11-octahydro-2H-pyrido[4′,3′:3,4]pyrazolo[1,5-a][1,4]diazepine-2-carboxamide] here?
Answer: 1 to 100 nM

Question: How did the EC50 turn out when CC[C@H](O)[C@@H]1CN(C)C(=O)c2c3c(nn2C1)CCN(C(=O)Nc1cc(Cl)c(F)cc1F)C3 (single isomer, unassigned) [Compound 096_E1, (R*)—N-(5-chloro-2,4-difluorophenyl)-8-((S*)-1-hydroxypropyl)-10-methyl-11-oxo-1,3,4,7,8,9,10,11-octahydro-2H-pyrido[4′,3′:3,4]pyrazolo[1,5-a][1,4]diazepine-2-carboxamide] was run?
Answer: 1 to 100 nM

Question: CCC(O)C1CN(C)C(=O)c2c3c(nn2C1)CCN(C(=O)Nc1cc(Cl)c(F)cc1F)C3 (single isomer, unassigned) [Compound 096_E2, (S*)—N-(5-chloro-2,4-difluorophenyl)-8-((R*)-1-hydroxypropyl)-10-methyl-11-oxo-1,3,4,7,8,9,10,11-octahydro-2H-pyrido[4′,3′:3,4]pyrazolo[1,5-a][1,4]diazepine-2-carboxamide] was tested. Which EC50 did it give?
Answer: 100 to 500 nM
